From article PMC11889964, “Surveying helix 12 dynamics within constitutively active estrogen receptors using bipartite tetracysteine display” (The Journal of Biological Chemistry, 2025)
Substitutions are numbered along the chain they refer to.

Experiments:
Type in all cases: binding
ERα-LBD-ΔC4(D538G) [1] = target: T1, ERα-LBD-ΔC4(D538G) (Homo sapiens, UniProt P03372, A546C/C417S/C530A/D538G/E380C/H547C); assay: Titration FlAsH-ER assay, FlAsH apparent equilibrium dissociation constants (Kapp)
T1 construct: pMCSG7 leader with TEV site (ENLYFQ/SNA); made in house; host or cells: E. coli BL21(DE3)
T1 sequence (P03372 with tags, fused parts or gaps E380C/C417S/C530A/D538G/A546C/H547C): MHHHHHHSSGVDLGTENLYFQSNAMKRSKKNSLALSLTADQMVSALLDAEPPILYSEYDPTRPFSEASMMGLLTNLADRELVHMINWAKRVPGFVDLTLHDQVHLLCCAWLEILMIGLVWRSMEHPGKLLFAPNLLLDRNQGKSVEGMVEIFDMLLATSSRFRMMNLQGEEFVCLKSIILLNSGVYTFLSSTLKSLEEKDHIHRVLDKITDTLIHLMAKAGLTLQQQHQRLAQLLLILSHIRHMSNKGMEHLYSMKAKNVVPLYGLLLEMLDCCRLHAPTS
Experimental: (§1) Titration experiments were performed on 384-well black, flat-bottom plates (catalog no.: 3575; Corning) with wells containing 25 μl total reaction volume^. ERα-LBDs (10 μM) were incubated in 25 μl of binding buffer supplemented with 1 mM TCEP overnight at room temperature. […] The solutions were then transferred to a fresh 384-well black, flat-bottom plate (catalog no.: 3575; Corning) and serially diluted with binding buffer. EDT and FlAsH-EDT2 (1 μl) in binding buffer were then immediately added at final concentrations of 10 μM and 1 μM, respectively. The reactions were then allowed to incubate in the dark for 6 h at room temperature. Fluorescence counts for each sample were then measured using a SpectraMax M5e multimode plate reader, with an excitation wavelength of 508 nm and an emission wavelength of 530 nm. Data were processed using SoftMax Pro software, version 6.4 and Kaleidagraph, version 4.5. The Kapp for each complex was defined by curve fitting using the equation below. Fobs=Fmin+(Fmax−Fmin/2L)(L+P+Kapp−((L+P+Kapp)^2−(4LP))^0.5) where Fobs is the observed fluorescence; P represents the total protein concentration; L is the total concentration of FlAsH-EDT2; Fmin is the minimum fluorescence value; Fmax represents the maximum fluorescence value; and Kapp is the apparent equilibrium dissociation constant.

ERα-LBD-ΔC4 [2] = target: T2, ERα-LBD-ΔC4 (Homo sapiens, UniProt P03372, A546C/C417S/C530A/E380C/H547C); assay: as above
T2 construct: pMCSG7 leader with TEV site (ENLYFQ/SNA); made in house; host or cells: E. coli BL21(DE3)
T2 sequence (P03372 with tags, fused parts or gaps E380C/C417S/C530A/A546C/H547C): T1 sequence (P03372 with tags, fused parts or gaps E380C/C417S/C530A/D538G/A546C/H547C) with G265D
Experimental: as §1

ERα-LBD-ΔC4(Y537S) [3] = target: T3, ERα-LBD-ΔC4(Y537S) (Homo sapiens, UniProt P03372, A546C/C417S/C530A/E380C/H547C/Y537S); assay: as above
T3 construct: pMCSG7 leader with TEV site (ENLYFQ/SNA); made in house; host or cells: E. coli BL21(DE3)
T3 sequence (P03372 with tags, fused parts or gaps E380C/C417S/C530A/Y537S/A546C/H547C): T1 sequence (P03372 with tags, fused parts or gaps E380C/C417S/C530A/D538G/A546C/H547C) with Y264S, G265D
Experimental: as §1

ERα-LBD-ΔC4 [4] = target: T2, ERα-LBD-ΔC4; assay: Endpoint fluorescence FlAsH-ER assay; conditions: unliganded ERα-LBD-ΔC4; 1 μM FlAsH-EDT2, 6 h
Experimental: Endpoint fluorescence experiments were performed in triplicate on 384-well black, flat-bottom plates (catalog no.: 3575; Corning) with wells containing 25 μl total reaction volume. The protein (10 μM) was incubated in FlAsH binding buffer (50 mM Tris base, 500 mM KCl, 2 mM DTT, 1 mM EDTA, 1 mM Na3VO4, 10% glycerol, pH 8.0) supplemented with 1 mM TCEP overnight at room temperature. […] Following incubation, 1 μl aliquots of EDT and FlAsH-EDT2 in binding buffer were added at final concentrations of 10 μM and 1 μM, respectively. The reaction mixtures were then allowed to incubate in the dark for 6 h at room temperature. Following incubation, the fluorescence of each sample was measured using a SpectraMax M5e multimode plate reader (Molecular Devices), with an excitation wavelength of 508 nm and an emission wavelength of 530 nm. Data were collected using SoftMax Pro software, version 6.4 (Molecular Devices) and processed using Kaleidagraph, version 4.5 (Synergy).

ERα-LBD-ΔC4(D538G) [5] = target: T1, ERα-LBD-ΔC4(D538G); assay: Kinetic FlAsH-ER assay, FlAsH apparent rate constants (kon); conditions: 1 μM FlAsH-EDT2, 10 μM protein
Experimental: (§2) Kinetic experiments were performed on 384-well black, flat-bottom plates (catalog no.: 3575; Corning) with wells containing 25 μl total reaction volume. ERα-LBDs (10 μM) were incubated in 25 μl of binding buffer supplemented with 1 mM TCEP overnight at room temperature. […] Aliquots of EDT and FlAsH-EDT2 (1 μl) at respective final concentrations of 10 μM and 1 μM in binding buffer were then added to the samples. The change in fluorescence of each sample was then collected over 6 h with measurements taken at 1 min intervals. Data were collected using a SpectraMax M5e multimode plate reader, with an excitation wavelength of 508 nm and an emission wavelength of 530 nm. The data were processed using Kaleidagraph, version 4.5, and apparent rate constants (kon) were determined through curve fitting using the equation below: Fobs=Fmin+(Fmax−Fmin)(1−e^(−kT)) where Fobs is the observed fluorescence; Fmin is the minimum fluorescence value; Fmax represents the maximum fluorescence value; T is time in minutes; and k is the apparent rate constant.

ERα-LBD-ΔC4 [6] = target: T2, ERα-LBD-ΔC4; assay: as above; conditions: 1 μM FlAsH-EDT2, 10 μM protein
Experimental: as §2

ERα-LBD-ΔC4(Y537S) [7] = target: T3, ERα-LBD-ΔC4(Y537S); assay: as above; conditions: 1 μM FlAsH-EDT2, 10 μM protein
Experimental: as §2

`O=C(O)c1ccccc1-c1c2ccc(=O)c([As]3SCCS3)c-2oc2c([As]3SCCS3)c(O)ccc12` [FlAsH] gave a Kd (ERα-LBD-ΔC4(D538G) [1]; liganded receptor (+E2)) of 160 ± 60 nM, a Kd (ERα-LBD-ΔC4(D538G) [1]; unliganded receptor (−E2)) of 570 ± 370 nM and a Kd (ERα-LBD-ΔC4 [2]; liganded receptor (+E2)) of 1220 ± 700 nM. For the same compound, the Kd (ERα-LBD-ΔC4 [2]; unliganded receptor (−E2)) was 940 ± 560 nM, the Kd (ERα-LBD-ΔC4(Y537S) [3]; liganded receptor (+E2)) was 540 ± 330 nM and the Kd (ERα-LBD-ΔC4(Y537S) [3]; unliganded receptor (−E2)) was 900 ± 650 nM. The “increase in endpoint fluorescence compared with ERα-LBD-ΔC0” value (ERα-LBD-ΔC4 [4]) was 10 fold, the kon (ERα-LBD-ΔC4(D538G) [5]; liganded receptor (+10 μM E2)) was 1170 M⁻¹ s⁻¹ and the kon (ERα-LBD-ΔC4(D538G) [5]; unliganded receptor (−E2)) was 838 M⁻¹ s⁻¹. For the same compound, the kon (ERα-LBD-ΔC4 [6]; liganded receptor (+10 μM E2)) was 310 M⁻¹ s⁻¹, the kon (ERα-LBD-ΔC4 [6]; unliganded receptor (−E2)) was 447 M⁻¹ s⁻¹ and the kon (ERα-LBD-ΔC4(Y537S) [7]; liganded receptor (+10 μM E2)) was 900 M⁻¹ s⁻¹. For the same compound, the kon (ERα-LBD-ΔC4(Y537S) [7]; unliganded receptor (−E2)) was 491 M⁻¹ s⁻¹.
